Like-named read-outs stand apart in the source and are kept apart here.

This passage reports IC50 results from publication PMC11020070, “Discovery of Protease-Activated Receptor 4 (PAR4)-Tethered Ligand Antagonists Using Ultralarge Virtual Screening” (ACS Pharmacology & Translational Science, 2024).

For assay [1], the target named is T1, PAR4 (Homo sapiens, UniProt Q96RI0).
T1 sequence (Q96RI0 18-385): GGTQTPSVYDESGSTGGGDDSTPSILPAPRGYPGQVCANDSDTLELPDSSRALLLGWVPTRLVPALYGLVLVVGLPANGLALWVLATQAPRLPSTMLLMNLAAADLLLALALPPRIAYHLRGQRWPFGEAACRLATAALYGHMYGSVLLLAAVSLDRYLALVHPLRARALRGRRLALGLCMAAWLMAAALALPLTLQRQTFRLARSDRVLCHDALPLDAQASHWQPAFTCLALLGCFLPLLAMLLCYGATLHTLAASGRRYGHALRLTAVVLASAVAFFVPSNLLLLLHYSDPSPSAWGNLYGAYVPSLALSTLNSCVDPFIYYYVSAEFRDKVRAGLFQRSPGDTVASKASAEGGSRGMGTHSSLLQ
Description: Human platelet activity assay, flow cytometry, γ-thrombin activation. Format: cell-based. Further details: endogenous in cells; host or cells: washed human platelets from healthy volunteers. To be noted: human platelets, 100 nM γ-thrombin. The protocol:
To test the antagonistic effect of the compounds on PAR4, a flow cytometry assay of human platelets was employed. Each compound was screened at 10 μM in human platelets using flow cytometry for GPIIbIIIa activation (PAC1) and P-selectin (CD62p) expression as previously described.[4] Activation of GPIIbIIIa allows interaction with divalent fibrinogen or multivalent von Willebrand factor, leading to platelet aggregation.[41] PAR4 stimulation also triggers α-granule secretion containing P-selectin.[5] […] Platelets were treated with each test compound or vehicle control DMSO before activating with γ-thrombin (100 nM) or PAR4 agonist peptide mimetic (200 μM, “PAR4-AP” AYPGKF) for 30 min. γ-thrombin activates PAR4 but not PAR1.[42]
Activation of washed human platelets was monitored by flow cytometry for the detection of PAC1 (GPIIbIIIa activation) and CD62p (P-selectin expression) binding as previously described.[4] Human platelets were obtained from healthy volunteers. The Vanderbilt University Internal Review Board approved these studies. Informed consent was obtained from all individuals prior to the blood draw. 10 mL of whole blood was collected into 0.32% Na citrate. Platelet-rich plasma was collected after room-temperature centrifugation at 1100 rpm for 15 min on a Thermo Forma 400 centrifuge (Thermo Fisher, Waltham, MA). 1/10 volume of acid citrate dextrose (ACD) buffer was added to the collected supernatant and incubated for 10 min. After centrifugation at 2400 rpm for 10 min, the platelet pellet was resuspended in 1 mL Tyrode’s buffer (“TBB”: 15 mM HEPES, 0.33 mM NaH2PO4, pH 6.4, 138 mM NaCl, 2.7 mM KCl, 1 mM MgCl2, 5.5 mM dextrose, 0.1% bovine serum albumin). Platelets were collected, counted on a Z1 Coulter Particle Counter (Beckman Coulter, Brea, CA), and diluted in TBB to 1.5 × 10^7 platelets/mL. 60 uL of platelets were aliquoted to each tube and preincubated with 40 μL of TBB with antibodies PAC1 FITC (Becton Dickinson, Franklin Lakes NJ) and P-selectin PE (Becton Dickinson) and either test compound antagonist or DMSO vehicle control for 20 min. Platelets were then activated with 100 nM γ-thrombin or other agonists for 30 min. Samples were then fixed by adding 100 μL of 2% paraformaldehyde. After 30 min, samples were diluted by adding 300 μL of phosphate-buffered saline (PBS) and stored at 4C. Data were collected on a three-laser BD LSRFortessa (Becton Dickinson) and analyzed with FlowJo software (FlowJo LLC, Ashland, OR). The mean fluorescence intensity (geometric) of PE and FITC was determined from 30,000 events after compensation correction. Data were normalized to vehicle (DMSO) controls.
Compounds were screened for inhibition activity against human PAR4 using 100 nM γ-thrombin or 200 μM PAR4-AP in a single-point assay (10 μM test compound).

Assay [2] deals with T2, mouse PAR4 (Mus musculus, UniProt O88634).
T2 construct: washed mouse platelets were prepared by collecting cardiac puncture blood; endogenous in cells; host or cells: washed mouse platelets (cardiac puncture blood)
T2 sequence (O88634 17-396): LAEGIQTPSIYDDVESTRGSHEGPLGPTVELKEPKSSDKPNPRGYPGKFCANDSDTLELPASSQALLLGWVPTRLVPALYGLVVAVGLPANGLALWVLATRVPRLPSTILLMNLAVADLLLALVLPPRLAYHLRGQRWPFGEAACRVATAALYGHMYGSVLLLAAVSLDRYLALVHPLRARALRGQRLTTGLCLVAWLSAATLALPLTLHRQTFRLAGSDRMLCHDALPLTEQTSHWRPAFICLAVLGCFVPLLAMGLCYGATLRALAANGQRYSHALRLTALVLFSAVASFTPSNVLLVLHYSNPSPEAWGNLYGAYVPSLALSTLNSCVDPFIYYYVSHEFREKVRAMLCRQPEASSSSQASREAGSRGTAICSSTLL
Description: Mouse platelet activity assay, flow cytometry, γ-thrombin activation. To be noted: mouse platelets, 316 nM γ-thrombin. It counts as cell-based. How it is done: For mouse PAR4 activity, washed mouse platelets were prepared by collecting cardiac puncture blood with 200 μL of 20 U/mL heparin. Following centrifugation at 1000 rpm for 15 min, plasma and buffy coat were collected into a separate tube and spiked with apyrase and PGE1. After centrifuging at 1000 rpm for 8 min, the platelet-rich plasma was transferred to another tube and centrifuged at 2200 rpm for 10 min to pellet the platelets. Platelets were resuspended in TBB + apyrase + PGE1. Platelets were counted and diluted in TBB to a final concentration of 2 × 10^7 platelets/mL. 50 μL of platelets were aliquoted to each tube preincubated with 50 μL of TBB with antibodies for mouse GPIIbIIIa and P-selectin (Emfret, Eibelstadt Germany) and either test compound antagonist or DMSO control. Platelets were activated with 316 nM γ-thrombin for 30 min. Samples were then fixed with 100 μL of 2% paraformaldehyde for 20 min and diluted with 300 μL of PBS. Flow cytometry counts are measured as for human platelets on a three-laser BD LSRFortessa (Becton Dickinson) and analyzed with FloJo software.

The mark [3] stands for this setting: GPIIbIIIa activation (PAC1), read-out: Human Platelets PAC1 IC50.
Setting [4] is: P-selectin (CD62p), read-out: Human Platelets P-Sel IC50.
[5] abbreviates: GPIIbIIIa (JonA), read-out: Mouse Platelets JonA IC50.
[6] abbreviates: P-selectin, read-out: Mouse Platelets P-Sel IC50.

Take `Cc1nc(NC(=O)c2cc(-c3ccccc3)[nH]n2)n[nH]1` [Compound 8]: the IC50 in assay [1] (setting [3]) worked out at 2790 nM; in assay [1] (setting [4]), 2210 nM.
As to `Cc1nc(NC(=O)c2cc(C(=O)OC(C)(C)C)n(-c3ccccc3)n2)n[nH]1` [Compound 10], the IC50 in assay [2] (setting [5]) was found to be 11300 nM; in assay [2] (setting [6]), 6160 nM; in assay [1] (setting [3]), 1130 nM; in assay [1] (setting [4]), 1160 nM.
The like results for `CC(C)c1cc(C(=O)Nc2n[nH]c(-c3c(F)cccc3F)n2)nn1C` [Compound 11] were, in that order, 1090 nM, 1630 nM, 606 nM and 847 nM.
The like results for `Cn1nc(C(=O)Nc2n[nH]c(-c3ccccc3F)n2)cc1C1CC1` [Compound 13] were, in that order, 715 nM, 699 nM, 593 nM and 630 nM.
The like results for `Cn1nc(C(=O)Nc2n[nH]c(-c3ccccc3Cl)n2)cc1C1CC1` [Compound 14] were, in that order, 1340 nM, 1290 nM, 835 nM and 1040 nM.
As to `CCc1cc(C(=O)Nc2n[nH]c(-c3c(F)cccc3F)n2)nn1C` [Compound 15], the IC50 was determined as 672 nM in assay [2] (setting [5]), 807 nM in assay [2] (setting [6]), 495 nM in assay [1] (setting [3]) and 580 nM in assay [1] (setting [4]).
`Cn1nc(C(=O)Nc2n[nH]c(-c3ccc(C#N)cc3)n2)cc1C1CC1` [Compound 16]: the IC50 in assay [2] (setting [5]) turned out to be 1140 nM; in assay [2] (setting [6]), 1180 nM; in assay [1] (setting [3]) it was 460 nM; in assay [1] (setting [4]), 569 nM.
The like results for `Cc1n[nH]c(NC(=O)c2nn(-c3cccc(F)c3)c3c2CCC3)n1` [Compound 19] were, in that order, 1190 nM, 1140 nM, 923 nM and 1390 nM.
Consider `Cc1n[nH]c(NC(=O)c2nn(-c3ccc(F)cc3)c3c2CCC3)n1` [Compound 21], for which the IC50 came out at 3250 nM in assay [1] (setting [3]) and 4780 nM in assay [1] (setting [4]).
Regarding `O=C(Nc1n[nH]c(C2CC2)n1)c1nn(-c2ccccc2)c2c1CCC2` [Compound 24], the IC50 in assay [2] (setting [5]) was 958 nM; in assay [2] (setting [6]), 1130 nM; in assay [1] (setting [3]), 392 nM; in assay [1] (setting [4]), 523 nM.
The like results for `O=C(Nc1n[nH]c(C2CC2)n1)c1nn(-c2ccccc2)c2c1CCCC2` [Compound 26] were, in that order, 354 nM, 351 nM, 182 nM and 228 nM.
With `O=C(Nc1n[nH]c(-c2cccc(C(F)(F)F)c2)n1)c1nn(-c2ccccc2)c2c1CCCC2` [Compound 27], the IC50 is 367 nM in assay [2] (setting [5]), 368 nM in assay [2] (setting [6]), 152 nM in assay [1] (setting [3]) and 208 nM in assay [1] (setting [4]).
As to `O=C(Nc1n[nH]c(C2CC2)n1)c1nn(-c2cccc(F)c2)c2c1CCCC2` [Compound 28], the IC50 in assay [2] (setting [5]) was 981 nM; in assay [2] (setting [6]) it was 793 nM; in assay [1] (setting [3]), 254 nM; in assay [1] (setting [4]), 280 nM.
Turning to `O=C(Nc1n[nH]c(-c2ccccc2)n1)c1nn(-c2ccccc2)c2c1CCCC2` [Compound 29], the IC50 in assay [2] (setting [5]) came out at 1110 nM; in assay [2] (setting [6]), 1160 nM; in assay [1] (setting [3]), 450 nM; in assay [1] (setting [4]) it was 603 nM.
Turning to `N#Cc1ccc(-c2nc(NC(=O)c3nn(-c4ccccc4)c4c3CCCC4)n[nH]2)cc1` [Compound 30], the IC50 in assay [2] (setting [5]) is 1840 nM; in assay [2] (setting [6]) it was 1420 nM; in assay [1] (setting [3]) it was 395 nM; in assay [1] (setting [4]), 496 nM.
